Data reported in patent US12441704B2, “Compounds active towards nuclear receptors” (NUEVOLUTION A/S, priority 2019, dated 2025).
Read-outs that look alike come from different tables or passages of the source.

Tests used:
[1] = target: T1, RORγ ligand-binding domain fused to Gal4 (Homo sapiens, UniProt P51449); assay: RORγ Reporter Assay (Gal4); format: cell-based
T1 construct: Gal4 (galactose-responsive transcription factor); expressed in transfected cells; host or cells: HEK293
T1 sequence (P51449 269-508 limits assumed): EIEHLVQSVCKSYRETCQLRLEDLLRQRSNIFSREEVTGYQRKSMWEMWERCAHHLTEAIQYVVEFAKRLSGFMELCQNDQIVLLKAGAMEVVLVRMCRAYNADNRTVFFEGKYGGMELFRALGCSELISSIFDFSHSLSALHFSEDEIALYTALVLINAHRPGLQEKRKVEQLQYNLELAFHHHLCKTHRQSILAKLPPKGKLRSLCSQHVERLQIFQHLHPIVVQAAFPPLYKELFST
In short: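 Percent inhibition was derived from luciferase RLU versus vehicle mean after 24 h compound incubation (37 °C, 0.1% DMSO). The cells were HEK293, transiently co-expressing a Gal4–RORγ ligand-binding-domain fusion plus a UAS-driven luciferase gene.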

[2] = tested on: IL-17A secretion in activated PBMCs; assay: IL-17A secretion in activated PBMCs; format: cell-based, human; details: human PBMCs stimulated with CD3/CD28 Dynabeads for 48 h, absolute IC50
Description: Heparin-treated whole blood from healthy human volunteers was supplied from Hospital de Sant Pau (Barcelona) under the approval of the local ethical review board for human studies (Hospital de Sant Pau, Barcelona, Spain). Human peripheral blood mononuclear cells (PBMCs) were isolated from healthy human volunteers by density gradient centrifugation using the Ficoll-Paque (GE Healthcare). […] Cells were seeded in 384-well plate (DiscoverX), at 40,000 cells per well and cultured 2 h at 37° C. and 5% CO2.
Dose-response curves with compounds were prepared using a 5-fold serial dilution (10 concentrations) in 100% DMSO and further diluted 100-fold in culture medium. Compound solutions (5 μL) were added to the plate containing cells (final DMSO concentration of 0.1%) and incubated for 30 min. Then, cells were stimulated with CD3/CD28 Dynabeads (ThermoFisher, at a bead-to-cell ratio of 1:1) for 48 h at 37° C. and 5% CO2.
IL-17A levels in supernatant were determined by immunoassay using hIL17A QBeads (Intellicyt) and by fluorescence analysis in iQue flow cytometer following the manufacturer's instructions. Inhibition of IL-17A secretion was calculated using the following formula: inhibition=100*[1−[(x−mean basal condition)/(mean top condition−mean basal condition)]]. Activated DMSO-treated cells were used as top condition and activated GNE09461 (10 μM)-treated cells as basal condition.

[3] = HEK293 cells co-transfected with RORγ LBD-Gal4 and luciferase reporter, 24 h incubation, absolute EC50, read-out: EC50
[4] = compounds of the present disclosure, value from Table 2 herein, read-out: Gal4 assay EC50

| SMILES | EC50 [1, 3] [nM] | IC50 [2] [nM] | IC50 ([2]; Homo sapiens, PBMC, 48 h) [nM] | EC50 [1, 4] [nM] |
| --- | --- | --- | --- | --- |
| CCN(Cc1ccc(C(F)(F)F)cc1)c1ncnc(NC[C@H]2CCN(C(CO)C(N)=O)C[C@@H]2O)c1F (relative stereo) [Example A7-66-2, rel-(R)-2-((3R,4R)-4-(((6-(ethyl(4-(trifluoromethyl)benzyl)amino)-5-fluoropyrimidin-4-yl)amino)methyl)-3-hydroxypiperidin-1-yl)-3-hydroxypropanamide OR rel-(R)-2-((3S,4S)-4-(((6-(ethyl(4-(trifluoromethyl)benzyl)amino)-5-fluoropyrimidin-4-yl)amino)methyl)-3-hydroxypiperidin-1-yl)-3-hydroxypropanamide] | 88 | 210 |  |  |
| [2H]C([2H])(C(N)=O)N1CC[C@@H](CNc2ncnc(N(Cc3ccc(C(F)(F)F)cc3)C3CC3)c2F)[C@H](O)C1 (relative stereo) [Example A7-69, rel-2-((3R,4R)-4-(((6-(cyclopropyl(4-(trifluoromethyl)benzyl)amino)-5-fluoropyrimidin-4-yl)amino)methyl)-3-hydroxypiperidin-1-yl)acetamide-2,2-d2] | 2.7 |  | 3.1 |  |
| CCN(Cc1ccc(C(O)(C(F)(F)F)C(F)(F)F)cc1)c1ncnc(NC[C@]2(O)CCN(CC(N)=O)C[C@H]2O)c1F (relative stereo) [Example D5-04, rel-2-((3R,4R)-4-(((6-(ethyl(4-(1,1,1,3,3,3-hexafluoro-2-hydroxypropan-2-yl)benzyl)amino)-5-fluoropyrimidin-4-yl)amino)methyl)-3,4-dihydroxypiperidin-1-yl)acetamide] | 5.5 |  | 1 |  |
| CCN(Cc1ccc(C(F)(F)F)cc1)c1ncnc(NC[C@@]2(O)CCN(C(C(N)=O)c3ccncc3)C[C@@H]2O)c1F (relative stereo) [Example D5-07, rel-2-((3R,4R)-4-(((6-(ethyl(4-(trifluoromethyl)benzyl)amino)-5-fluoropyrimidin-4-yl)amino)methyl)-3,4-dihydroxypiperidin-1-yl)-2-(pyridin-4-yl)acetamide] | 4.5 |  | 2.5 |  |
| NC(=O)C(c1ccncc1)N1CC[C@](O)(CNc2ncnc(N(Cc3ccc(C(F)(F)F)cc3)C3CC3)c2F)[C@@H](O)C1 (relative stereo) [Example D5-08, rel-2-((3R,4R)-4-(((6-(cyclopropyl(4-(trifluoromethyl)benzyl)amino)-5-fluoropyrimidin-4-yl)amino)methyl)-3,4-dihydroxypiperidin-1-yl)-2-(pyridin-4-yl)acetamide] | 6.1 |  | 2.7 |  |
| NC(=O)CN1CC[C@@H](CNc2ncnc(N(Cc3ccc(C(F)(F)F)cn3)C3CC3)c2F)[C@H](O)C1 (single isomer, unassigned) [Example A7-14-1] | 8.3 |  | 38 | < 100 |
| NC(=O)CN1CC[C@@H](CNc2ncnc(N(Cc3ccc(C(F)(F)F)nc3)C3CC3)c2F)[C@H](O)C1 (single isomer, unassigned) [Example A7-28-1] | 42 |  | 62 |  |
| NC(=O)CN1CC[C@H](CNc2ncnc(N(Cc3ccc(C(F)(F)F)nc3)C3CC3)c2F)[C@@H](O)C1 (single isomer, unassigned) [Example A7-28-2] |  |  | 81 | < 100 |
| NC(=O)CN1CC[C@@H](CNc2ncnc(N(Cc3ccc(C(O)(C(F)(F)F)C(F)(F)F)cc3)C3CC3)c2F)[C@H](O)C1 (single isomer, unassigned) [Example A7-54-1] | 3.8 |  | 9.8 |  |
| CCN(Cc1ccc(C(F)(F)F)cc1)c1ncnc(NC[C@]2(O)CCN(CC(N)=O)C[C@H]2O)c1F (single isomer, unassigned) [Example D5-01-1-2] | 9.6 | 24 |  |  |
| Cn1cc(-c2ccc(CN(c3ncnc(NC[C@]4(O)CCN(CC(N)=O)C[C@H]4O)c3F)C3CC3)c(F)c2)cn1 (single isomer, unassigned) [Example D5-05-2] | 29 | 200 |  |  |
| NC(=O)CN1CC[C@H](CNc2ncnc(N(Cc3ccc(C(F)(F)F)cc3)C3CC3)c2F)[C@@H](O)C1 (stereo in doubt) [Example A7-01-2, rel-2-((3R,4R)-4-(((6-(Cyclopropyl(4-(trifluoromethyl)benzyl)amino)-5-fluoropyrimidin-4-yl)amino)methyl)-3-hydroxypiperidin-1-yl)acetamide] | 1.5 |  | 2.7 |  |
| CCN(Cc1ccc(C(F)(F)F)cc1F)c1ncnc(NC[C@H]2CCN(CC(N)=O)C[C@@H]2O)c1F (stereo in doubt) [Example A7-26-2, rel-2-((3R,4R)-4-(((6-(ethyl(2-fluoro-4-(trifluoromethyl)benzyl)amino)-5-fluoropyrimidin-4-yl)amino)methyl)-3-hydroxypiperidin-1-yl)acetamide] | 8.5 |  | 29 |  |
| NC(=O)CN1CC[C@@H](CNc2ncnc(N(Cc3ccc(C(O)(C(F)(F)F)C(F)(F)F)cc3)C3CC3)c2F)[C@H](O)C1 (stereo in doubt) [Example A7-54, rac-2-((3R,4R)-4-(((6-(cyclopropyl(4-(1,1,1,3,3,3-hexafluoro-2-hydroxypropan-2-yl)benzyl)amino)-5-fluoropyrimidin-4-yl)amino)methyl)-3-hydroxypiperidin-1-yl)acetamide] | 0.6 |  | 5.6 |  |
| NC(=O)CN1CC[C@H](CNc2ncnc(N(Cc3ccc(C(O)(C(F)(F)F)C(F)(F)F)cc3)C3CC3)c2F)[C@@H](O)C1 (stereo in doubt) [Example A7-54-2, rel-2-((3R,4R)-4-(((6-(cyclopropyl(4-(1,1,1,3,3,3-hexafluoro-2-hydroxypropan-2-yl)benzyl)amino)-5-fluoropyrimidin-4-yl)amino)methyl)-3-hydroxypiperidin-1-yl)acetamide] | 2.5 |  | 6.2 |  |
| Cc1cc(C(F)(F)F)ccc1CN(c1ncnc(NCC2CCN(CC(N)=O)CC2)c1F)C1CC1 [Example A7-02, 2-(4-(((6-(cyclopropyl(2-methyl-4-(trifluoromethyl)benzyl)amino)-5-fluoropyrimidin-4-yl)amino)methyl)piperidin-1-yl)acetamide] | 76 |  | 58 |  |
| NC(=O)CN1CCC(O)(CNc2ncnc(N(Cc3ccc(C(F)(F)F)cn3)C3CC3)c2F)CC1 [Example A7-09, 2-(4-(((6-(cyclopropyl((5-(trifluoromethyl)pyridin-2-yl)methyl)amino)-5-fluoropyrimidin-4-yl)amino)methyl)-4-hydroxypiperidin-1-yl)acetamide] | 44 |  | 190 | < 100 |
| NC(=O)CN1CCC(O)(CNc2ncnc(N(Cc3ccc(C(F)(F)F)cc3)C3CC3)c2F)CC1 [Example A7-10, 2-(4-(((6-(cyclopropyl(4-(trifluoromethyl)benzyl)amino)-5-fluoropyrimidin-4-yl)amino)methyl)-4-hydroxypiperidin-1-yl)acetamide] | 3.3 |  | 17 |  |
| NC(=O)CN1CCC(O)(CNc2ncnc(N(Cc3ccc(C(F)(F)F)nc3)C3CC3)c2F)CC1 [Example A7-11, 2-(4-(((6-(cyclopropyl((6-(trifluoromethyl)pyridin-3-yl)methyl)amino)-5-fluoropyrimidin-4-yl)amino)methyl)-4-hydroxypiperidin-1-yl)acetamide] | 72 |  | 200 | < 100 |
| NC(=O)CN1CCC(CNc2ncnc(N(Cc3ccc(C(F)(F)F)cc3)C3CC3)c2F)(C(N)=O)CC1 [Example A7-44, 1-(2-amino-2-oxoethyl)-4-(((6-(cyclopropyl(4-(trifluoromethyl)benzyl)amino)-5-fluoropyrimidin-4-yl)amino)methyl)piperidine-4-carboxamide] | 24 |  | 74 |  |
| NC(=O)CN1CCC(CO)(CNc2ncnc(N(Cc3ccc(C(F)(F)F)nc3)C3CC3)c2F)CC1 [Example A7-45, 2-(4-(((6-(cyclopropyl((6-(trifluoromethyl)pyridin-3-yl)methyl)amino)-5-fluoropyrimidin-4-yl)amino)methyl)-4-(hydroxymethyl)piperidin-1-yl)acetamide] | 46 |  | 80 | < 100 |
| N#CC1(CNc2ncnc(N(Cc3ccc(C(F)(F)F)cc3)C3CC3)c2F)CCN(CC(N)=O)CC1 [Example A7-50, 2-(4-cyano-4-(((6-(cyclopropyl(4-(trifluoromethyl)benzyl)amino)-5-fluoropyrimidin-4-yl)amino)methyl)piperidin-1-yl)acetamide] | 8.1 |  | 40 |  |
